Experimental data from patent US8637043B2, “Compositions useful as ligands for the formyl peptide receptor like 1 receptor and methods of use thereof” (Chemocentryx, Inc., priority 2001, dated 2014).
Ends that are not written are not given here.

How the values were obtained:
[1] = system: OVA-specific IgG; assay: Adjuvant activity, anti-OVA antibodies in Rhesus monkeys (Example 16); assay type: in vivo; conditions: effectiveness as adjuvant
Protocol: First, 96-well U-bottom plastic dishes were coated overnight with 1 μg ovalbumin (OVA) in 100 μl PBS per well. The next day, the dishes were rinsed with PBS, blocked with PBS containing 5% fetal bovine serum (FBS), and rinsed with PBS again. Plasma samples from experimental animals (see below) were diluted 10^2- to 10^5-fold and added to the dishes for 2 hours, after which the dishes were again rinsed with PBS. The dishes were then incubated with biotinylated goat anti-monkey IgG detection antibodies, then rinsed with PBS and incubated with streptavidin-linked horseradish peroxidase (SA-HRP). After a final rinsing with PBS, the HRP substrate 2,2′-Azinobis [3-ethylbenzothiazoline-6-sulfonic acid]-diammonium salt was added. Color development was measured with an ELISA plate reader at 405 nm, and optical density (OD) units were converted to arbitrary “antibody units,” where a unit is defined as the inverse of the plasma dilution that produces 50% of the maximum response from a standard curve obtained by serial dilution of an ascites collected from OVA-injected mice and containing OVA-specific antibodies.
Since the SHAAYtide (SEQ ID NO:6) and the chemokines mC10 and vMCK-2 recruited APCs, including dendritic cells, to the site of injection, these polypeptides were tested for their ability to act as immunization adjuvants to augment the immune response to a co-injected foreign antigen. […]

[2] = system: pariental L1.2 cells; assay: Migration of parental L1.2 cells; assay type: cell-based, murine
Protocol: Migration assays were performed on monocytes and neutrophils. Human monocytes and neutrophils (prepared as in Exampe 2) were harvested and resuspended in chemotaxis medium (CM). The CM consisted of Hank's buffered salt solution (Gibco, Mass.) containing CaCl2 (1 mM) and MgSO4 (1 mM) with added 0.1% BSA (Sigma, St. Louis, Mo.). The assays were performed in 96-well ChemoTx® microplates (Neuroprobe, Mass.). Leukotactin, MlP-1α and chemokines (CKβ8(1-99), CKβ8(25-99), CKβ8-1(1-116) or CKβ8-1(25-116), prepared as in Example 1) were added to the lower wells (final volume 29 μL), and 20 μL of cell suspension (5×10^6 cells/mL for monocytes; 2.5×10^6 cells/mL for neutrophils) added to the polycarbonate filters (5 μm pore size for monocytes; 3 μm pore size for neutrophils). After incubation for 90 min (37° C., 100% humidity, 5% CO2), cells were removed from the upper surface of the filter by scraping. Cells that migrated into the lower chamber were quantified using the Quant cell proliferation assay kit (Molecular Probes, Oreg.).
The ability of CKβ8-1 (25-116) to elicit the migration of the FPRL1 expressing cells was examined. Test conditions were as in Example 5.

Row | Molecule | Notes: adjuvant [1] | migration of parental L1.2 cells [2]
1 | MLWRRKIGPQMTLSHAAY [SEQ ID NO: 6] | effective | –
2 | CKβ8-1(25-116): novel NH2-terminal truncated form of CKβ8-1, SEQ ID NO: 16, human recombinant chemokine (protein, listed as Homo sapiens) MLWRRKIGPQMTLSHAAGFHATSADCCISYTPRSIPCSLLESYFETNSECSKPGVIFLTKKGRRFCANPSDKQVQVCMRMLKLDTRIKTRKN | – | did not migrate
